Publication PMC9481563, “Structural insights into the pSer/pThr dependent regulation of the SHP2 tyrosine phosphatase in insulin and CD28 signaling” (Nature Communications, 2022)

How the values were obtained:
[1] = biological target: T1, PTPRε first phosphatase domain, C335S (Homo sapiens, UniProt P23469, C335S); assay: biochemical; format: binding; conditions: competitive FP titration vs CF-ppIRS1 100 nM, protein fixed, unlabelled peptide varied; n = 3 technical replicates
T1 construct: PTPRε (P23469 first domain: 107–399); MBP; made in house; host or cells: E. coli BL21 (DE3)
Description: (§1) The two SH2 domains of PI3KR1 (UniProt P27986; nSH2: 321−433 cSH2: 614–724) were cloned from HEK293T cDNA pool, and subsequently ligated into a modified pET vector encoding maltose binding protein (MBP) tag on the N-terminal and a hexa-His tag on the C-terminal end of the construct. Similarly, the catalytic, tyrosine phosphatase domains of PTPRε (P23469 first domain: 107–399) and PTP1B (P18031; 1–229) were cloned from a HEK293T cDNA pool, and inserted into a pBH4 vector encoding an N-terminal His6 tag (for the final binding experiments, an MBP-tagged version of PTPRε was employed). […] Wild-type C-terminal FLAG-tagged human IRS1 was cloned between HindIII-NotI sites of pcDNA3.1(+) vector (#V79020 Invitrogen, Waltham MA USA). Ser/Ala mutant IRS1 was generated by replacing the region of S616/S636/S666/S736 positions with a cassette carrying S616A/S636A/S666A/S736A mutations. All constructs were validated by complete Sanger sequencing before protein expression and purification. The oligonucleotide sequences used are shown on Supplementary table 4.
(§2) Fluorescence polarization was always measured in triplicates, on black Corning low volume round bottom 384-well plates (with 10 ul volumes), using a BioTek Cytatation 5 reader, with the green fluorescent protein (GFP) cube filter set (ex: 485/20, em: 528/20, gain: 50, height: 7.5). Fluorescence polarization data was evaluated on Origin 2018. The dissociation constants (Kd) were determined by using the appropriate quadratic and cubic equations inserted as a user-defined function and applying nonlinear fit until convergence. The fitting formulae are shown at Supplementary note 1. Kd ratio distributions for Fig. 6 were calculated using a Monte-Carlo approach (Supplementary note 2).
(§3) Supplementary note 1. Curve fitting of fluorescence polarization (FP) measurements.
(§4) To evaluate polarization values from direct and competitive titrations, we used the following fitting formulae in Origin 2018, as detailed below.
(§5) Direct titration curves were fitted according to the following formula: […]
(§6) Where Imin is the minimal anisotropy, Imax is the (asymptotically estimated) maximal intensity. K0 is the starting concentration of the protein, while T0 is the (fixed) concentration of the labelled peptide and Kd is the dissociation constant.
(§7) Competitive titration curves were fitted with a different formula (In addition to those defined above, constants KdT KdB B0 T0 and D0 here refer to the Kd derived from the direct titration, the unknown Kd of the analyte, the labelled peptide concentration, the competitor peptide concentration as well as the protein concentration, respectively).
(§8) The ± sign refers to two different scenarios, depending on the sign of discriminant (KdT > KdB or […]). For unknown analytes, the choice of sign is not arbitrary, as the fitting will not converge unless the appropriate formula is chosen: […]
(§9) Where A, B and C correspond to the following expressions: […]

[2] = biological target: T2, PTP1B catalytic domain, C215S (Homo sapiens, UniProt P18031, C215S); assay: biochemical; format: binding; conditions: competitive FP titration vs CF-ppIRS1 100 nM, protein fixed, unlabelled peptide varied; n = 3 technical replicates
T2 sequence (P18031 1-229 C215S): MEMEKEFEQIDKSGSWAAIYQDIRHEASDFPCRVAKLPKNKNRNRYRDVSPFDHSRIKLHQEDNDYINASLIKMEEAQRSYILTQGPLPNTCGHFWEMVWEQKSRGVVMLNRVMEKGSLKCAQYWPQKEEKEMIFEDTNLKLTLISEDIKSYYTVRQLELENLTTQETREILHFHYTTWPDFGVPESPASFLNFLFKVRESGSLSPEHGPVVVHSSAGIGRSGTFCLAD
Description: as §1, §2, §3, §4, §5, §6, §7, §8, §9

T1 sequence (P23469 107-399 C335S): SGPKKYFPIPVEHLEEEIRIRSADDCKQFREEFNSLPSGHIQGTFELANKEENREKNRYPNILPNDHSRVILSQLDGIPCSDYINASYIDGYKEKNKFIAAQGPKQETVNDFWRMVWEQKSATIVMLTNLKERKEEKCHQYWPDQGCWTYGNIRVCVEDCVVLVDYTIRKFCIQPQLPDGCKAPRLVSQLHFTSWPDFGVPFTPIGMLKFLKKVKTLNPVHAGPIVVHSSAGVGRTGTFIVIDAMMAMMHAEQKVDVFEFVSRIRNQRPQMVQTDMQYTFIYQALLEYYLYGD

Row | SMILES | Kd [1] | Kd [2]
1 | CSCC[C@H](NC(=O)[C@H](Cc1ccc(OP(=O)(O)O)cc1)NC(=O)[C@H](CC(=O)O)NC(=O)[C@H](CO)NC(=O)[C@H](Cc1c[nH]cn1)NC(=O)[C@H](CC(C)C)NC(=O)[C@H](CC(C)C)NC(=O)[C@H](CCCNC(=N)N)NC(=O)[C@H](CO)NC(=O)[C@@H](N)CCCNC(=N)N)C(=O)N[C@@H](CC(N)=O)C(=O)N[C@@H](CCSC)C(=O)N[C@H](C(=O)N1CCC[C@H]1C(=O)N[C@@H](CCCNC(=N)N)C(=O)N[C@@H](CCCNC(=N)N)C(=O)O)[C@@H](C)O [p0CD28] | 1.18 ± 0.1 µM | –
2 | CSCC[C@H](NC(=O)[C@@H]1CCCN1C(=O)[C@H](CCSC)NC(=O)[C@H](Cc1ccc(OP(=O)(O)O)cc1)NC(=O)[C@H](CC(=O)O)NC(=O)CNC(=O)[C@H](CO)NC(=O)CNC(=O)[C@H](CCCCN)NC(=O)[C@H](CCCNC(=N)N)NC(=O)CN)C(=O)N[C@@H](CO)C(=O)N1CCC[C@H]1C(=O)N[C@@H](CCCCN)C(=O)N[C@@H](CO)C(=O)O [p0IRS1] | 36 ± 2.44 µM | 1.14 ± 0.0851 µM
3 | CSCC[C@H](NC(=O)[C@H](Cc1ccc(OP(=O)(O)O)cc1)NC(=O)[C@H](CC(=O)O)NC(=O)[C@H](CO)NC(=O)[C@H](Cc1c[nH]cn1)NC(=O)[C@H](CC(C)C)NC(=O)[C@H](CC(C)C)NC(=O)[C@H](CCCNC(=N)N)NC(=O)[C@H](CO)NC(=O)[C@@H](N)CCCNC(=N)N)C(=O)N[C@@H](CC(N)=O)C(=O)N[C@@H](CCSC)C(=O)N[C@H](C(=O)N1CCC[C@H]1C(=O)N[C@@H](CCCNC(=N)N)C(=O)N[C@@H](CCCNC(=N)N)C(=O)O)[C@@H](C)OP(=O)(O)O [ppCD28] | 1.24 ± 0.08 µM | –
4 | CSCC[C@H](NC(=O)[C@@H]1CCCN1C(=O)[C@H](CCSC)NC(=O)[C@H](Cc1ccc(OP(=O)(O)O)cc1)NC(=O)[C@H](CC(=O)O)NC(=O)CNC(=O)[C@H](CO)NC(=O)CNC(=O)[C@H](CCCCN)NC(=O)[C@H](CCCNC(=N)N)NC(=O)CN)C(=O)N[C@@H](COP(=O)(O)O)C(=O)N1CCC[C@H]1C(=O)N[C@@H](CCCCN)C(=O)N[C@@H](CO)C(=O)O [ppIRS1] | 16.5 ± 1.7 µM | 0.0613 ± 0.0102 µM
